# Assay results taken from patent US11472842B2 (Protagonist Therapeutics, Inc., priority 2015, dated 2022).
# pEC50: −log10 of the molar value. Read-outs that look alike come from different tables or passages of the source.
# Target: T1, human ferroportin (Homo sapiens, UniProt Q9NP59)
# T1 construct: expressed in transfected cells
# T1 sequence (Q9NP59 1-571): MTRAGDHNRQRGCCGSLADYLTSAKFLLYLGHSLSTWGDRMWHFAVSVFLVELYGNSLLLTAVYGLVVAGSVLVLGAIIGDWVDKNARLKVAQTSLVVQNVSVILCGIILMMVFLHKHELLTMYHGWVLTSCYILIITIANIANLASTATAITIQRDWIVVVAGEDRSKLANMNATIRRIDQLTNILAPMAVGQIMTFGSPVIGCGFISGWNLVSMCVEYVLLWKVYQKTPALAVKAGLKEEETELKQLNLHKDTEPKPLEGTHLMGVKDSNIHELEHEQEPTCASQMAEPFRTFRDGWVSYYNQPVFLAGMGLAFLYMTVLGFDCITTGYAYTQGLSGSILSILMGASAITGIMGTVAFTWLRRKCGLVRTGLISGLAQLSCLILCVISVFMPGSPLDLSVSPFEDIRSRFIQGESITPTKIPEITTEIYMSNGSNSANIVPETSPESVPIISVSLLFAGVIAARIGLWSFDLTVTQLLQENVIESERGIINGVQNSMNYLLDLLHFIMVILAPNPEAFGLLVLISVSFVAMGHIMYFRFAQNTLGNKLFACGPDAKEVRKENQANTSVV
# Experiment: Ferroportin internalization / degradation, HEK-GFP cell based assay (HEK293 cells stably expressing ferroportin-GFP, decrease in GFP fluorescence)
# Experimental: Peptide analogues were tested in vitro for induction of internalization of the human ferroportin protein. Following internalization, the […] are degraded. The assay measures a decrease in fluorescence of the receptor.
# The cDNA encoding the human ferroportin (SLC40A1) was cloned from a cDNA clone from Origene (NM_014585). The DNA encoding the ferroportin was amplified by PCR using primers also encoding terminal restriction sites for subcloning, but without the termination codon. The ferroportin receptor was subcloned into a mammalian GFP expression vector containing a neomycin (G418) resistance marker in such that the reading frame of the ferroportin was fused in frame with the GFP protein. The fidelity of the DNA encoding the protein was confirmed by DNA sequencing. HEK293 cells were used for transfection of the ferroportin-GFP receptor expression plasmid. The cells were grown according to standard protocol in growth medium and transfected with the plasmids using Lipofectamine (manufacturer's protocol, Invitrogen). […] The cells were propagated and frozen in aliquots.
# Compound was added to desired final concentration for at least 18 hours in the incubator. […] Compound was added to desired final concentration for at least 18 hours but no more than 24 hours in the incubator.
# The EC50 of these reference compounds for ferroportin degradation was determined according to the activity assay described above. These peptides served as control standards.
# These values were determined as described herein.
# [1] = Table 3 monomer analogues, ferroportin-GFP HEK293 cells, 18-24 h incubation, read-out: HEK-GFP cell based assay (potency EC50)
Compound,DC50 [1] [nM],also measured
CCCCCCCCCCCCCCCC(=O)NCCOCCOCCC(=O)NCCCC[C@@H]1NC(=O)[C@H](Cc2ccccc2)NC(=O)[C@H](CCCCN)NC(=O)[C@H]([C@@H](C)CC)NC(=O)[C@@H](NC(=O)[C@@H]2CCCN2C(=O)[C@H](Cc2ccccc2)NC(=O)[C@H](Cc2c[nH]cn2)NC(=O)[C@@H](NC(=O)[C@H](CC(=O)O)NC(=O)CC(C)C)[C@@H](C)O)CSSC[C@@H](C(=O)N[C@@H](CCCCN)C(N)=O)NC(=O)CNC(=O)[C@H](CCCCN)NC(=O)[C@H](CO)NC(=O)[C@H](CCCNC(=N)N)NC(=O)[C@@H]2CCCN2C1=O [Compound 16],36,–
CCCCCCCCCCCCCCCC(=O)NCCCC[C@@H]1NC(=O)[C@H](Cc2ccccc2)NC(=O)[C@H](CCCCN)NC(=O)[C@H]([C@@H](C)CC)NC(=O)[C@@H](NC(=O)[C@@H]2CCCN2C(=O)[C@H](Cc2ccccc2)NC(=O)[C@H](Cc2c[nH]cn2)NC(=O)[C@@H](NC(=O)[C@H](CC(=O)O)NC(=O)CC(C)C)[C@@H](C)O)CSSC[C@@H](C(=O)N[C@@H](CCCCN)C(N)=O)NC(=O)CNC(=O)[C@H](CCCCN)NC(=O)[C@H](CO)NC(=O)[C@H](CCCNC(=N)N)NC(=O)[C@@H]2CCCN2C1=O [Compound 20],19,–
CCCCCCCCCCCCCCCC(=O)NCCCCCC(=O)NCCCC[C@@H]1NC(=O)[C@H](Cc2ccccc2)NC(=O)[C@H](CCCCN)NC(=O)[C@H]([C@@H](C)CC)NC(=O)[C@@H](NC(=O)[C@@H]2CCCN2C(=O)[C@H](Cc2ccccc2)NC(=O)[C@H](Cc2c[nH]cn2)NC(=O)[C@@H](NC(=O)[C@H](CC(=O)O)NC(=O)CC(C)C)[C@@H](C)O)CSSC[C@@H](C(=O)N[C@@H](CCCCN)C(N)=O)NC(=O)CNC(=O)[C@H](CCCCN)NC(=O)[C@H](CO)NC(=O)[C@H](CCCNC(=N)N)NC(=O)[C@@H]2CCCN2C1=O [Compound 22],18,–
"CCCCCCCCCCCCCCCC(=O)NCCCCCC(=O)N[C@@H](CCC(=O)NCCCC[C@@H]1NC(=O)[C@H]([C@@H](C)CC)NC(=O)[C@@H](NC(=O)[C@@H]2CCCN2C(=O)[C@H](Cc2ccccc2)NC(=O)[C@H](Cc2c[nH]cn2)NC(=O)[C@@H](NC(=O)[C@H](CC(=O)O)NC(=O)CC(C)C)[C@@H](C)O)CSSC[C@@H](C(=O)N[C@@H](CCCCN)C(N)=O)NC(=O)CN(C)C(=O)[C@H](CCCCN)NC(=O)[C@H](CO)NC(=O)[C@H](CCCNC(=N)N)NC(=O)[C@@H]2CCCN2C(=O)[C@H](CCC(=O)O)NC(=O)[C@H](Cc2ccccc2)NC1=O)C(=O)O [Compound 28, Isovaleric acid-DTHFPCI-[Lys(isoGlu-Ahx-Palm)]-FEPRSK-[Sar]-CK-NH2]",23,–
"CC[C@H](C)[C@H](NC(=O)[C@H](CS)NC(=O)[C@@H](NC(=O)[C@@H]1CCCN1C(=O)[C@H](Cc1ccccc1)NC(=O)[C@H](Cc1c[nH]cn1)NC(=O)[C@@H](NC(=O)[C@@H](N)CC(=O)O)[C@@H](C)O)[C@@H](C)CC)C(=O)N[C@@H](Cc1ccccc1)C(N)=O [Mini-Hepcidin 1-9, reference compound]",–,"pEC50 (Table 9 reference compounds, ferroportin degradation, read-out: Potency EC50): 6.15"
"CC[C@@H](C)[C@@H](NC(=O)[C@H](N)Cc1ccccc1)C(=O)N[C@H](CS)C(=O)N[C@@H](C(=O)N1CCC[C@@H]1C(=O)N[C@H](Cc1ccccc1)C(=O)N[C@H](Cc1c[nH]cn1)C(=O)N[C@@H](C(=O)N[C@H](CC(=O)O)C(N)=O)[C@H](C)O)[C@H](C)CC [RI-Mini Hepcidin, Hy-DPhe-DIle-DCys-DIle-DPro-DPhe-DHis-DThr-DAsp-NH2, reference compound]",–,"DC50 (Table 9 reference compounds, read-out: Potency EC50): > 10000 nM"

# Continued, in another order:
DC50 [1] [nM],Compound,also measured
6,"CCCCCCCCCCCCCCCC(=O)NCCCCCC(=O)NCCCC[C@@H]1NC(=O)[C@H]([C@@H](C)CC)NC(=O)[C@@H](NC(=O)[C@@H]2CCCN2C(=O)[C@H](Cc2ccccc2)NC(=O)[C@H](Cc2c[nH]cn2)NC(=O)[C@@H](NC(=O)[C@H](CC(=O)O)NC(=O)CC(C)C)[C@@H](C)O)CSSC[C@@H](C(=O)N[C@@H](CCCCN)C(N)=O)NC(=O)CN(C)C(=O)[C@H](CCCCN)NC(=O)[C@H](CO)NC(=O)[C@H](CCCNC(=N)N)NC(=O)[C@@H]2CCCN2C(=O)[C@H](CCC(=O)O)NC(=O)[C@H](Cc2ccccc2)NC1=O [Compound 23, Isovaleric acid-DTHFPCI-[Lys(Ahx-Palm)]-FEPRSK-[Sar]-CK-NH2]",–
10,CCCCCCCCCCCCCCCC(=O)NCCCCCC(=O)NCCCC[C@@H]1NC(=O)[C@H](Cc2ccccc2)NC(=O)[C@H](CCCCN)NC(=O)[C@H]([C@@H](C)CC)NC(=O)[C@@H](NC(=O)[C@@H]2CCCN2C(=O)[C@H](Cc2ccccc2)NC(=O)[C@H](Cc2c[nH]cn2)NC(=O)[C@@H](NC(=O)[C@H](CC(=O)O)NC(=O)CC(C)C)[C@@H](C)O)CSSC[C@@H](C(=O)N[C@@H](CCCCN)C(N)=O)NC(=O)CN(C)C(=O)[C@H](CCCCN)NC(=O)[C@H](CO)NC(=O)[C@H](CCCNC(=N)N)NC(=O)[C@@H]2CCCN2C1=O [Compound 24],–
14,CC[C@H](C)[C@@H]1NC(=O)[C@@H](NC(=O)[C@@H]2CCCN2C(=O)[C@H](Cc2ccccc2)NC(=O)[C@H](Cc2c[nH]cn2)NC(=O)[C@@H](NC(=O)[C@H](CC(=O)O)NC(=O)CC(C)C)[C@@H](C)O)CSSC[C@@H](C(=O)N[C@@H](CCCCN)C(N)=O)NC(=O)CNC(=O)[C@H](CCCCN)NC(=O)[C@H](CO)NC(=O)[C@H](CCCNC(=N)N)NC(=O)[C@@H]2CCCN2C(=O)[C@H](CCCCNC(C)=O)NC(=O)[C@H](Cc2ccccc2)NC(=O)[C@H](CCCCN)NC1=O [Compound 25],–
